In brackets after ≈: the same amount, converted by molar mass. Like-named read-outs stand apart in the source and are kept apart here.
Tests used:
physchem = details: water, solubility in water
[1] = in the absence of a solubilizing agent; cited from earlier work
[2] = intravenous injection of a therapeutic dose; cited from earlier work
[3] = for concentration of uncomplexed propofol in solution / concentration of uncomplexed propofol in solution, % of the total: binding constant 3800 M^−1
hemolysis = details: in concentrations typically used to solubilize pharmaceutical formulations; FIG. 1 (Thompson 1997); cited from earlier work
[4] = CAPTISOL cyclodextrin 14.4% w/v (0.0665M)
[5] = CAPTISOL cyclodextrin 50% w/v (0.231M)

Row | Compound | solubility (physchem) [µg/mL] | solubility in water [µg/mL] | water solubility [1] | time to induction of anesthesia from the start of injection [2] [s] | concentration of uncomplexed propofol in solution [3, 4] [M] | concentration of uncomplexed propofol in solution, % of the total [3, 4] | concentration of uncomplexed propofol in solution [3, 5] [M] | concentration of uncomplexed propofol in solution, % of the total [3, 5] | hemolytic behavior (hemolysis) | CAPTISOL® cyclodextrin concentration required to raise aqueous propofol from 0.15 mg/mL to 10 mg/mL ([3]; propofol 10 mg/mL) [% w/v]
1 | CC(C)c1cccc(C(C)C)c1O [propofol, 2,6-diisopropylphenol] | ~150 (≈ 841 µM) | 150 (≈ 841 µM) | approximately 0.154 mg/mL | ≤ 40 | ~0.00124 | about 2.21% | ~0.000084 | about 0.15% |  | 
2 | Sulfobutyl Ether-β-Cyclodextrin [CAPTISOL® cyclodextrin] |  |  |  |  |  |  |  |  | essentially no hemolytic behavior | 15

From US7034013B2 (priority 2001, dated 2006)
